From PubChem BioAssay AID652053 (Broad Institute, 2013)

Test system: Huh7 psiCHECK-miR122 Renilla luciferase reporter, 48 h
Assay: miR-122 inhibitors in Huh7 reporter cells, dose response, cell-based, Huh7 psiCHECK-miR122, Renilla luciferase, cherry-pick (AID 652053)

## CCOc1ccccc1N(CC(=O)N1CCCCCC1)S(=O)(=O)c1ccc(C)cc1
  AC40: 1.23 µM

## C[C@H](CO)N1C[C@H](C)[C@@H](CN(C)Cc2ccc(C(=O)Nc3ccccc3N)cc2)Oc2ccc(N(C)C)cc2CC1=O
  AC40: 11.3 µM

## C[C@@H]1CN([C@H](C)CO)C(=O)Cc2cc(N(C)C)ccc2O[C@H]1CN(C)Cc1ccc(C(=O)Nc2ccccc2N)cc1
  AC40: 10.3 µM

## Cc1cccc(NS(=O)(=O)c2cc3c4c(c2)C(C)C(=O)N4CCC3)c1 (stereo not drawn)
  AC40: 1.93 µM

## O=C(OCCN=C1NS(=O)(=O)c2ccccc21)c1ccccc1
  AC40: 9.59 µM

## CC1CCN(C(=O)CN(c2ccc3c(c2)OCCO3)S(=O)(=O)c2ccccc2)CC1
  AC40: 2.51 µM

## Cc1cc(Br)ccc1NC(=S)NCCc1ccccc1
  AC40: 9.65 µM

## OC(c1ccc(Cl)c(F)c1)c1ncc(-c2cccc(F)c2)[nH]1 (stereo not drawn)
  AC40: 9.13 µM

## O=C(Nc1ccc(S(=O)(=O)NCCc2ccccc2)cc1)c1ccc(Br)o1
  AC40: 0.54 µM

## C[C@H](CO)N1C[C@H](C)[C@@H](CN(C)Cc2ccc(C(F)(F)F)cc2)Oc2c(cccc2N(C)C)C1=O
  AC40: 2.48 µM

## Nc1c(S(=O)(=O)c2cc(Cl)ccc2Cl)c2nc3ccccc3nc2n1CCN1CCOCC1
  AC40: 6.22 µM

## CCN(CC)c1ccc(NC(=O)COc2ccccc2C#N)cc1S(=O)(=O)Nc1ccccc1OC
  AC40: 0.325 µM

## COc1cccc(NS(=O)(=O)c2cc(C)sc2C)c1
  AC40: 1.43 µM

## C[C@H]1CN([C@@H](C)CO)C(=O)c2cccc(NC(=O)C3CCOCC3)c2O[C@@H]1CN(C)Cc1ccc(C(F)(F)F)cc1
  AC40: 1.51 µM

## Cc1ccc(NS(=O)(=O)c2cc(-c3cc(C)no3)ccc2C(C)C)nc1
  AC40: 2.23 µM

## CCNS(=O)(=O)c1ccc2c3c(cccc13)C(=O)N2
  AC40: 11.6 µM

## C[C@H](CO)N1C[C@H](C)[C@@H](CN(C)C(=O)Nc2cccc3ccccc23)Oc2ccc(NC(=O)Nc3ccc(C(F)(F)F)cc3)cc2CC1=O
  AC40: 7.77 µM

## CCn1nccc1C(=O)Nc1ccc(S(=O)(=O)NC23CC4CC(CC(C4)C2)C3)cc1
  AC40: 2.24 µM

## O=C(Nc1ccccc1)N1C[C@H]2[C@@H](c3ccccc31)[C@@H](CO)N2C(=O)c1ccccn1
  AC40: 33.7 µM

## COC(=O)c1ccc(NS(=O)(=O)c2cc(C)ccc2OC)cc1
  AC40: 4.89 µM

## CCCCNS(=O)(=O)c1ccc2nc(-c3cccnc3)cc(C(=O)NC(C)CC)c2c1 (stereo not drawn)
  AC40: 0.387 µM

## COc1ccccc1NS(=O)(=O)c1cc(NC(=O)c2cccc(S(=O)(=O)N(C)C)c2)ccc1N1CCOCC1
  AC40: 0.776 µM

## CC(=O)N1CCSc2ccc(S(=O)(=O)NCCc3ccc(Cl)cc3)cc21
  AC40: 4.57 µM

## COCC(=O)Nc1ccc(S(=O)(=O)NCCc2ccccc2)cc1
  AC40: 12.9 µM

## CC(C)NC(=O)Nc1cccc2c1O[C@@H](CN(C)Cc1ccc(C(F)(F)F)cc1)[C@H](C)CN([C@H](C)CO)C2=O
  AC40: 1.52 µM

## COc1ccc(OC)c(C2C3=C(COC3=O)Nc3cc4c(cc32)OCO4)c1 (stereo not drawn)
  AC40: 17.7 µM

## CC(=O)Nc1ccc(NS(=O)(=O)c2ccc3ccccc3c2)cc1
  AC40: 14.3 µM

## O=S(=O)(NC1CCCCC1)c1ccc(-c2csnn2)s1
  AC40: 3.8 µM

## COc1ccc(S(=O)(=O)NC2CCCCC2)c(C)c1C
  AC40: 1.57 µM

## COc1ccc(S(=O)(=O)N(CC(=O)Nc2cc(C)on2)Cc2ccccc2)cc1
  AC40: 21.3 µM

## COc1ccc(NS(=O)(=O)c2ccc(N3CCOCC3)c(NC(=O)c3cccc(F)c3)c2)cc1
  AC40: 8.96 µM

## Cc1cc(S(=O)(=O)N(Cc2ccccc2F)C2CC2)ccc1-n1cnnn1
  AC40: 1.94 µM

## Cc1ccc(NS(=O)(=O)c2csc(C(N)=O)c2)cc1C
  AC40: 3.14 µM

## COc1ccccc1NS(=O)(=O)c1cc(N/C(=N/S(=O)(=O)c2ccccc2)c2ccc(F)cc2)ccc1Cl
  AC40: 3.27 µM

## CC1CCCCN1C(=O)c1cc2nc(-c3ccccc3)cc(-c3ccccc3)n2n1 (stereo not drawn)
  AC40: 2.46 µM

## Cc1ccc(C(=O)NCCSC2CCCCC2)cc1S(=O)(=O)Nc1ccccc1
  AC40: 6.44 µM

## COc1cc(S(=O)(=O)NC2CCCCC2)c(C)cc1C
  AC40: 0.686 µM

## CCN(CC)C(=O)CC(c1ccc(N(C)C)cc1)c1c(OC)cc(OC)c2c(-c3ccccc3)cc(=O)oc12 (stereo not drawn)
  AC40: 3 µM

## O=C(c1ccc(F)cc1)N1C[C@H]2[C@@H](c3ccccc31)[C@@H](CO)N2C(=O)c1ccc(F)cc1
  AC40: 1.59 µM

## COc1ccc(C)cc1NS(=O)(=O)c1ccc2c(c1)CCN2C(C)=O
  AC40: 8.33 µM

## COc1ccc(NS(=O)(=O)c2cccc(Cl)c2)cc1S(=O)(=O)N1CCCCC1
  AC40: 4.35 µM

## O=C(NCCCN1CCCC1=O)c1cccc(S(=O)(=O)Nc2ccc(Br)cc2)c1
  AC40: 7.56 µM

## C[C@H](CO)N1C[C@H](C)[C@@H](CN(C)Cc2ccccc2)Oc2c(NC(=O)C3CC3)cccc2C1=O
  AC40: 6.79 µM

## Cc1cc(C)c(S(=O)(=O)Nc2ccc(O)cc2)cc1C
  AC40: 3.45 µM

## Cc1ccc(C(=O)NCCSc2ccccc2)cc1S(=O)(=O)Nc1ccccc1
  AC40: 4.09 µM

## CCOc1ccccc1CN(Cc1ccco1)S(=O)(=O)c1ccc(-n2cnnn2)c(OC)c1
  AC40: 4.36 µM

## Cc1cc(Cl)c(S(=O)(=O)NCc2ccccc2)cc1OCC(N)=O
  AC40: 8.54 µM

## CN(Cc1ccccc1)S(=O)(=O)c1ccc(NC(=S)NC(=O)C2CCCC2)cc1
  AC40: 9.75 µM

## C[C@H](CO)N1C[C@H](C)[C@@H](CN(C)CC2CC2)Oc2c(NC(=O)C3CC3)cccc2C1=O
  AC40: 22.2 µM

## CCC(=O)Nc1ccc(S(=O)(=O)NCCc2ccccc2)cc1
  AC40: 10.7 µM

## Cc1sc2ncn(CC(=O)N(CC(=O)NC3CCCC3)Cc3cccs3)c(=O)c2c1C
  AC40: 20 µM

## Cc1cc(S(=O)(=O)Nc2cc(C)c(O)c(C)c2)c(C)s1
  AC40: 24.9 µM

## C[C@H](CO)N1C[C@H](C)[C@H](CN(C)Cc2ccc(C(=O)Nc3ccccc3N)cc2)Oc2ccc(NC(=O)Nc3ccc4c(c3)OCO4)cc2CC1=O
  AC40: 8.06 µM

## C[C@H](CO)N1C[C@H](C)[C@@H](CN(C)CC2CCCCC2)Oc2c(NC(=O)c3ccncc3)cccc2C1=O
  AC40: 1.97 µM

## COc1cccc(CNS(=O)(=O)c2cc(-c3cc(C)no3)ccc2C(C)C)c1
  AC40: 5.07 µM

## C[C@@H]1CN([C@H](C)CO)C(=O)c2cccc(NC(=O)C3CC3)c2O[C@H]1CN(C)Cc1ccc(C(F)(F)F)cc1
  AC40: 4.08 µM

## Cc1ccc(C(=O)Nc2ccc(C)c(S(=O)(=O)Nc3ccccc3Cl)c2)s1
  AC40: 3.03 µM

## COc1ccccc1NS(=O)(=O)c1cc(NC(=O)Nc2ccc(Cl)cc2Cl)ccc1N1CCCCC1
  AC40: 1.49 µM

## COc1ccc(Br)cc1CNC(=O)Nc1cccs1
  AC40: 15.5 µM

## C[C@@H]1CN([C@H](C)CO)C(=O)c2cccc(NS(=O)(=O)c3cccs3)c2O[C@H]1CN(C)Cc1ccc(C(F)(F)F)cc1
  AC40: 1.6 µM

## O=C(Nc1nc2ccc(S(=O)(=O)N3CCCC3)cc2s1)C1CCCCC1
  AC40: 14.8 µM

## COc1ccc(S(=O)(=O)Nc2cc3c(C(C)=O)c(C)oc3c3ccccc23)cc1
  AC40: 14.9 µM

## COc1ccc(OC)c(S(=O)(=O)Nc2ccc(C(C)=O)cc2)c1
  AC40: 1.58 µM

## COc1ccc(C)cc1S(=O)(=O)Nc1cc(Cl)ccc1Cl
  AC40: 2.5 µM

## C[C@H]1CN([C@@H](C)CO)C(=O)Cc2cc(N(C)C)ccc2O[C@@H]1CN(C)Cc1ccc(C(=O)Nc2ccccc2N)cc1
  AC40: 25.7 µM

## CC(=O)Nc1ccc(S(=O)(=O)C(C#N)c2nc3ccccc3nc2NCCO)cc1 (stereo not drawn)
  AC40: 25.9 µM

## COc1ccccc1CNC(=O)C[C@H]1CC[C@H]2[C@H](COc3ccc(NS(=O)(=O)c4ccc(C)cc4)cc3C(=O)N2C)O1
  AC40: 22.4 µM

## Cc1cc(C)c(-n2nnnc2SCC(=O)c2cccs2)c(C)c1
  AC40: 14.9 µM

## CCOc1ccc(C)cc1S(=O)(=O)NC1CCCCC1
  AC40: 0.575 µM

## Cc1ccccc1OC1C(=O)N(Cc2ccc3c(c2)OCO3)C1c1sccc1C (stereo not drawn)
  AC40: 13.7 µM

## COc1ccc(S(=O)(=O)N(C)C[C@H]2Oc3ccc(NC(=O)Nc4ccc(F)cc4)cc3C(=O)N([C@H](C)CO)C[C@H]2C)cc1
  AC40: 0.631 µM

## Cc1nc2ccc(S(=O)(=O)Nc3ccccc3C)cc2s1
  AC40: 22.2 µM

## CCCC#Cc1cnc2c(c1)C(=O)N([C@H](C)CO)C[C@H](C)[C@H](CN(C)Cc1ccccc1F)O2
  AC40: 13.1 µM

## COc1ccccc1CNS(=O)(=O)c1cc(-c2cc(C)no2)ccc1C(C)C
  AC40: 4.78 µM

## O=C(c1ccc(NS(=O)(=O)c2ccc3c(c2)OCCO3)cc1)N1CCCCC1
  AC40: 14.8 µM

## Cc1ccc(C(C)(C)C)cc1S(=O)(=O)Nc1cccc(S(=O)(=O)NC2=NCCC2)c1
  AC40: 5.86 µM

## CN(C)Cc1ccccc1CNC(=O)c1cccc(S(=O)(=O)Nc2ccc3c(c2)OCO3)c1
  AC40: 2.15 µM

## S=C(Nc1ccc(Cl)cc1Cl)NC1CCCCC1
  AC40: 3.4 µM

## Cc1cc(C(=O)Nc2cccc3c2O[C@@H](CN(C)Cc2ccc(C(F)(F)F)cc2)[C@H](C)CN([C@H](C)CO)C3=O)n(C)n1
  AC40: 3.62 µM

## CC(C)C(=O)Nc1cc(S(=O)(=O)Nc2cccc(Cl)c2)ccc1Cl
  AC40: 1.52 µM

## Cc1ccc(NS(=O)(=O)c2cc(OCC(N)=O)c(C)cc2Cl)cc1C
  AC40: 7.14 µM

## COC(=O)c1[nH]c2ccccc2c1NC(=O)CN1CCCc2ccccc21
  AC40: 21.5 µM

## COc1cc(S(=O)(=O)NC2CCCC2)c(OC)cc1C
  AC40: 3.17 µM

## Cc1ccc(C)c(S(=O)(=O)Nc2ccc(C(=O)N3CCOCC3)cc2)c1
  AC40: 7.88 µM

## O=C(CSc1nnc(-c2cc3ccccc3cc2O)n1Cc1ccco1)c1ccc(F)cc1
  AC40: 5.74 µM

## COc1ccccc1NS(=O)(=O)c1cc(NC(=S)NCC2CCCO2)ccc1C (stereo not drawn)
  AC40: 3.52 µM

## Cc1ccc(C)c(S(=O)(=O)Nc2ccc(C(=O)N3CCC3)cc2)c1
  AC40: 2.82 µM

## C=CCNC(=O)c1ccccc1NC(=O)c1ccc(Cl)c(S(=O)(=O)Nc2cc(C)ccc2C)c1
  AC40: 1.38 µM

## CC(NC(=O)CNC(=S)N(Cc1cccs1)C1CCCC1)c1ccccc1 (stereo not drawn)
  AC40: 1.47 µM

## S=C(NCc1cccs1)Nc1cccc(Cl)c1
  AC40: 3.93 µM

## C[C@@H]1CN([C@H](C)CO)C(=O)c2cc(NC(=O)Nc3ccccc3)ccc2O[C@@H]1CN(C)S(=O)(=O)c1ccc(Cl)cc1
  AC40: 5.33 µM

## Cc1ccc(C(=O)NCc2ccco2)cc1S(=O)(=O)Nc1cccc(C)c1C
  AC40: 6.29 µM

## OC(c1ccc(Cl)c(Cl)c1)c1ncc(-c2ccccc2F)[nH]1 (stereo not drawn)
  AC40: 3.49 µM

## C[C@@H]1CN([C@H](C)CO)C(=O)Cc2cc(NC(=O)Nc3ccc(C(F)(F)F)cc3)ccc2O[C@@H]1CN(C)C(=O)Nc1cccc2ccccc12
  AC40: < 0.26 µM

## C/C(=N\NC(=O)c1ccccc1O)C1C(=O)c2ccccc2C1=O
  AC40: 18.1 µM

## CC(=O)c1c(C)[nH]c(C(=O)N(CCc2ccccc2)Cc2ccccc2)c1C
  AC40: 30.8 µM

## CCc1ccc(-c2cc(C)no2)cc1S(=O)(=O)Nc1ccc(C)cn1
  AC40: 2.33 µM

## COc1ccccc1NS(=O)(=O)c1cc(NC(=O)c2cccs2)ccc1N1CCOCC1
  AC40: 0.895 µM
